This note sets out measurements from patent US4977138A, “FR901228 substance and preparation thereof” (Fujisawa Pharmaceutical Co., Ltd., priority 1988, dated 1990).

Molecules are shown by their SMILES. Converted amounts (≈) assume the structure as drawn.

One data set deals with A549 (lung cancer). Briefly: Inhibition of human tumor cell growth in vitro (MTT cytotoxicity test). In kind it is cell-based. Conditions: four days. The protocol: (§1) The cytotoxicity test was performed in microtiter plates, with each well containing 3×10^3 tumor cells in 100 μl Dulbecco's minimum essential medium supplemented with 10% fetal calf serum, penicillin (50 units/ml) and streptomycin (50 μg/ml). The cells were incubated at 37° C. for four days and the colorimetric MTT [3-(4,5-dimethylthiazol-2-yl)-2,5-diphenyl tetrazolium bromide, made by Sigma] assay was performed according to the method described by Mosmann (J. Immunol. Methods, 65, 55-63, 1983). MTT was dissolved in phosphate buffer solution (PBS) at 5 mg/ml and filtered to sterilize and remove a small amount of insoluble residue. After the culture of human tumor cells was terminated, this MTT solution (10 μl per 100 μl medium) was added to all wells of an assay, and plates were further incubated at 37° C. for 4 hours. Acid-isopropanol (100 μl of 0.04N HCl in isopropanol) was added to all wells and mixed thoroughly to dissolve the dark blue crystals. After all crystals were dissolved, the plates were read on a 2-wavelength microplate photometer (Model MTP-22; Corona Electric Co., Ltd., Katsuta, Japan) at 550 nm, a reference wavelength of 660 nm. The object compound of this invention was dissolved in methanol and diluted in Dulbecco's minimum essential medium and added to the culture to give final concentration of 1 μg/ml or less.
A general note: Tetrazolium dyes change colour on reduction, which living cells bring about.

In the next data set the test system is MCF-7 (breast cancer). The data set is described as above. Conditions: four days. The class given is cell-based. As to the method: as §1
The test system of the next data set is SW480 (colon cancer). Described as above. Conditions: four days. In kind it is cell-based. As to the method:
as §1

In the next data set the test system is Aspergillus niger. Nature of the data set: Antimicrobial activity, agar dilution method in Sabouraud medium. The class given is cell-based. The note with it: 48 hours incubation at 25° C. As to the method: (§2) Antimicrobial activity of FR901228 was performed by an agar dilution method in Sabouraud medium.
(§3) Minimum inhibitory concentration (MIC) is expressed in terms of μg/ml after 48 hours incubation at 25° C.

For a further data set, the system named is Shizosaccharomyces pombe. The data set is described as above. The class given is cell-based. The note with it: 48 hours incubation at 25° C. As to the method: as §2, §3
In data set [1] the test system is Aureobasidium pullulans IFO 4466. The data set is described as above. The class given is cell-based. Conditions: 48 hours incubation at 25° C. As to the method:
as §2, §3

In a further data set the test system is P388 murine leukemia. Nature of the data set: Antitumor activity against P388 murine leukemia. The class given is in vivo, BDFl mice. The note with it: for Mean Survival Time: once daily for four days from 24 hours after inoculation, BDFl mice; for Time (%) (T/C % of mean survival time): 100× treated group/control group. The protocol: Antitumor activity of FR901228 substance was determined in murine tumor system. P388 leukemia cells […] were implanted intraperitoneally into BDFl mice (female, 8 weeks old). Twenty-four hours after the inoculation of tumor cells, FR901228 substance was administered intraperitoneally to mice. Administrations of FR901228 substance were continued intraperitoneally once daily for another three days. FR901228 substance was suspended in 0.9% saline. Control mice received intraperitoneal doses of 0.9% saline.
Antitumor activity was expressed as the mean survival time of group and also expressed as the T/C % (100× treated group/control group) of mean survival time.

Data set [2] can be described thus: Solubility of FR901228 substance in solvents. In kind it is physicochemical.
Where [3] appears, read: 0.32 mg/kg/day intraperitoneally.
Where [4] appears, read: 1.0 mg/kg/day intraperitoneally.

As to `C/C=C1\NC(=O)[C@H]2CSSCC/C=C/[C@H](CC(=O)N[C@H](C(C)C)C(=O)N2)OC(=O)[C@H](C(C)C)NC1=O` [FR901228 substance], the IC50 was found to be 0.00082 µg/mL (≈ 0.00152 µM) with A549 (lung cancer), 0.00099 µg/mL (≈ 0.00183 µM) in the data set with MCF-7 (breast cancer) and 0.00057 µg/mL (≈ 0.00105 µM) in the data set with SW480 (colon cancer). Also, the results for the MIC (in the data set on Aspergillus niger; in the data set on Shizosaccharomyces pombe; in data set [1]) were 100 µg/mL (≈ 185 µM), 10 µg/mL (≈ 18.5 µM) and 10 µg/mL (≈ 18.5 µM), respectively. The “Mean Survival Time” value with P388 murine leukemia (setting [3]) amounted to 14.25 days; with P388 murine leukemia (setting [4]), 15.25 days. Further, the “Time (%) (T/C % of mean survival time)” value in the data set with P388 murine leukemia (setting [3]) came to 158.3%; in the data set on P388 murine leukemia (setting [4]) it was 169.4%. The Solubility result in data set [2] (chloroform) is given as “soluble”; in data set [2] (ethanol) it was “sparingly soluble”; in data set [2] (ethyl acetate), “soluble”; in data set [2] (hexane), “insoluble”; in data set [2] (methanol), “sparingly soluble”; in data set [2] (water) it was “insoluble”.

By IC50 is commonly meant the concentration needed to halve the response being measured. A lower IC50 goes with greater potency in that assay. As usually defined, the MIC is the lowest concentration that inhibits growth of the organism.
